# How the values were obtained:
# [1] = biological target: hGYS1 enzyme (recombinant hGYS1/GN1 protein) (Homo sapiens (Human), UniProt P13807); experiment: GYS1 coupled enzyme assay (PK/LDH); type: biochemical; conditions: hGYS1/GN1 50 nM, UDP-Glucose 0.8 mM, G6P 1 mM; geometric mean of at least 2 runs
# [2] = tested on: hGYS1 enzyme / glycogen synthesis in HeLa cells; experiment: GYS1 cell based assay (glycogen synthesis, Glucose-glo); parameters: species or system human; conditions: 24 h incubation, 20 mM glucose, geometric mean of at least 2 runs
# Summary of the method: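 HeLa cells starved 24 h in medium containing only 1× Glutamax were plated onto compound in medium with 20 mM glucose (1% DMSO final) for 24 h, 37 °C, 5% CO2. Acid lysates were Tris-quenched, glucoamylase-digested (pH 5.3, 1 h, 37 °C) and read by Glucose-glo luminescence. IC50 came from Hill fits, as geometric mean of ≥2 runs.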
# [3] = biological target: hGYS2 enzyme (recombinant hGYS2/GN1 protein) (Homo sapiens (Human), UniProt P54840); experiment: GYS2 coupled enzyme assay (PK/LDH); type: biochemical; conditions: geometric mean of at least 2 assay runs on separate days, read-out: Avg_IC50
# hGYS2 enzyme (recombinant hGYS2/GN1 protein), sequence (P54840 whole entry): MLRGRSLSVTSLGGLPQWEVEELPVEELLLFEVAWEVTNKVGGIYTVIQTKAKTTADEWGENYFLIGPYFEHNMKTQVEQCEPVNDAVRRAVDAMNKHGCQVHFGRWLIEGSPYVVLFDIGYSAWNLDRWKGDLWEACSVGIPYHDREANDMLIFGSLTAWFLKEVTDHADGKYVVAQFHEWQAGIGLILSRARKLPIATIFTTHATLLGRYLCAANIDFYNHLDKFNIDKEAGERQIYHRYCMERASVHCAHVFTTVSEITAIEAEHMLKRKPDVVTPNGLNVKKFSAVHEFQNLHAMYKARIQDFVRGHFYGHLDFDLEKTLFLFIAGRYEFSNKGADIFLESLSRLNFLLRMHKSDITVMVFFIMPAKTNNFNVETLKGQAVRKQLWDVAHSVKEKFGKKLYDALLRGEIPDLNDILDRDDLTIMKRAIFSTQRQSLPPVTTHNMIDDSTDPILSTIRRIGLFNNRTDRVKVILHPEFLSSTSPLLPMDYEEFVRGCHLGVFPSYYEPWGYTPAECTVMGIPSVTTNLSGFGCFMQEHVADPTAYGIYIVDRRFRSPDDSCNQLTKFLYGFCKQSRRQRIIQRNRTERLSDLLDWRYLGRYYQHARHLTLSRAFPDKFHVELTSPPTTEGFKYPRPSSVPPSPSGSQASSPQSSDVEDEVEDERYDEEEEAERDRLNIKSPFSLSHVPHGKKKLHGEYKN
# hGYS2 enzyme (recombinant hGYS2/GN1 protein), sequence (P46976 whole entry partner): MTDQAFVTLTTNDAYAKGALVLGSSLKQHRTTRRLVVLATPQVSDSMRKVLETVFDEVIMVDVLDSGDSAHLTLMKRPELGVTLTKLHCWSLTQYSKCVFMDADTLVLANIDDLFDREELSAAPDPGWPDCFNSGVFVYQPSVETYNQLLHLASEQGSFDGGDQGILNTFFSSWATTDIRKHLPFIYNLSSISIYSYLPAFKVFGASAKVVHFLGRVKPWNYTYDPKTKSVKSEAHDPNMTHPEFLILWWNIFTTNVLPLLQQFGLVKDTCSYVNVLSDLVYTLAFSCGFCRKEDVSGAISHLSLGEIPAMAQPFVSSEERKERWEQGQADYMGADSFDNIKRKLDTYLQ
# Summary of the method: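 IC50 came from Hill fits of duplicate percent inhibition, based on control-normalized slopes of 340 nm NADH decline read each minute for 10 min. The reaction held recombinant hGYS2/GN1 (200 nM) with glycogen, UDP-glucose, G6P and PEP, plus PK/LDH coupling at pH 7.5 and 2.5% DMSO.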
# hGYS1 enzyme (recombinant hGYS1/GN1 protein), sequence (P13807 whole entry): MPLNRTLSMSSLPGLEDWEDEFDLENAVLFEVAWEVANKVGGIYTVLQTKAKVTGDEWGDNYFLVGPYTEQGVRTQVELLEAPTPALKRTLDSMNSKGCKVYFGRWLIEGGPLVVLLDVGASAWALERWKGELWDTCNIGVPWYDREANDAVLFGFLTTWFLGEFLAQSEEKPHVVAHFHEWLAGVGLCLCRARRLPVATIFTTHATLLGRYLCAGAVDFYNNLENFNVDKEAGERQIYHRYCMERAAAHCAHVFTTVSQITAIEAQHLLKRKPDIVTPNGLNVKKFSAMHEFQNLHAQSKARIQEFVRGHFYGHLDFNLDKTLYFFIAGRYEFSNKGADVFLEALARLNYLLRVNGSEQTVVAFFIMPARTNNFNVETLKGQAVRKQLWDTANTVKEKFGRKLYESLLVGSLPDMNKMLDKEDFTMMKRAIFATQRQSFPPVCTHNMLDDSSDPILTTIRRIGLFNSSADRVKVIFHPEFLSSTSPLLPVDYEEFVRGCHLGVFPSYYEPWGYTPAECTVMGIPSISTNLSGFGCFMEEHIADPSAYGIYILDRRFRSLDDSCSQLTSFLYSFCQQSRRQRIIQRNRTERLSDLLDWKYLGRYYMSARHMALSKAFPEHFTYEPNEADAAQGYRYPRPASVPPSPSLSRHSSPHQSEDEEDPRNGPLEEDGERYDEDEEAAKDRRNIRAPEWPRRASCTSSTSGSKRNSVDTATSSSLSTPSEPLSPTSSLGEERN
# hGYS1 enzyme (recombinant hGYS1/GN1 protein), sequence (P46976 whole entry partner): as the sequence (P46976 whole entry partner) above
compound,measurement,setting,value
"CC(C)c1ccc([C@@H](NC(=O)[C@@H]2C[C@@H](F)CN2C(=O)Cc2nn(C)c(=O)[nH]2)c2ccccc2)nc1 [Compound 263, (2S,4R)-4-fluoro-1-[2-(1-methyl-5-oxo-4,5-dihydro-1H-1,2,4-triazol-3-yl)acetyl]-N-[(S)-phenyl[5-(propan-2-yl)pyridin-2-yl]methyl]pyrrolidine-2-carboxamide]",IC50,[1],80 nM
same,IC50,"[2]; Homo sapiens, HeLa, 24 h",1950 nM
same,IC50,[3],> 100000 nM
"O=C(N[C@@H](c1ccccc1)c1ccc(C2CC2)c(F)c1)[C@@H]1C[C@@H](F)CN1C(=O)CN1CCNCC1=O [Compound 465, (2S,4R)-N-[(S)-(4-cyclopropyl-3-fluorophenyl)(phenyl)methyl]-4-fluoro-1-[2-(2-oxopiperazin-1-yl)acetyl]pyrrolidine-2-carboxamide]",IC50,[1],547 nM
same,IC50,"[2]; Homo sapiens, HeLa, 24 h",6040 nM
same,IC50,[3],> 100000 nM
"CN1C(=O)C(CC(=O)N2C[C@H](F)C[C@H]2C(=O)N[C@@H](c2ccccc2)c2ccc(C3(C)CC3)c(F)n2)c2ccccc21 (stereo partly drawn) [Compound 597, (2S,4R)-4-fluoro-N-[(S)-[6-fluoro-5-(1-methylcyclopropyl)pyridin-2-yl](phenyl)methyl]-1-[2-(1-methyl-2-oxo-2,3-dihydro-1H-indol-3-yl)acetyl]pyrrolidine-2-carboxamide]",IC50,[1],64 nM
same,IC50,"[2]; Homo sapiens, HeLa, 24 h",1320 nM
same,IC50,[3],> 100000 nM
"O=C(N[C@@H](c1ccccc1)c1ccc(C2CC2)c(F)c1)[C@@H]1C[C@@H](F)CN1C(=O)CNC(=O)N1CC(F)(F)C1 [Compound 495, (2S,4R)-N-[(S)-(4-cyclopropyl-3-fluorophenyl)(phenyl)methyl]-1-{2-[(3,3-difluoroazetidine-1-carbonyl)amino]acetyl}-4-fluoropyrrolidine-2-carboxamide]",IC50,[1],66 nM
same,IC50,"[2]; Homo sapiens, HeLa, 24 h",1500 nM
same,IC50,[3],> 100000 nM
CC(C)c1ccc([C@@H](NC(=O)[C@@H]2C[C@@H](F)CN2C(=O)Cn2nnnc2C(F)(F)F)c2ccccc2)cc1F [Compound 359],IC50,[1],63 nM
same,IC50,"[2]; Homo sapiens, HeLa, 24 h",960 nM
same,IC50,[3],> 100000 nM
"CC1(c2ccc([C@@H](NC(=O)[C@@H]3C[C@@H](F)CN3C(=O)CC3C(=O)Nc4ccccc43)c3ccccc3)cc2F)CC1 (stereo partly drawn) [Compound 581, (2S,4R)-4-fluoro-N-[(S)-[3-fluoro-4-(1-methylcyclopropyl)phenyl](phenyl)methyl]-1-[2-(2-oxo-2,3-dihydro-1H-indol-3-yl)acetyl]pyrrolidine-2-carboxamide]",IC50,[1],269 nM
same,IC50,"[2]; Homo sapiens, HeLa, 24 h",3920 nM
same,IC50,[3],> 100000 nM
"O=C(N[C@@H](c1ccccc1)c1ccc(C2CC(F)(F)C2)cn1)[C@@H]1C[C@@H](F)CN1C(=O)Cn1cnc2ccccc21 [Compound 537, (2S,4R)-1-[2-(1H-1,3-benzodiazol-1-yl)acetyl]-N-[(S)-[5-(3,3-difluorocyclobutyl)pyridin-2-yl] (phenyl)methyl]-4-fluoropyrrolidine-2-carboxamide]",IC50,[1],11 nM
same,IC50,"[2]; Homo sapiens, HeLa, 24 h",160 nM
same,IC50,[3],> 100000 nM
"CC(C)c1ccc([C@@H](NC(=O)[C@@H]2C[C@@H](F)CN2C(=O)CN2CCOCC2=O)c2ccccc2)cc1 [Compound 219, (2S,4R)-4-fluoro-1-[2-(3-oxomorpholin-4-yl)acethyl]-N-[(S)-phenyl[4-(propan-2-yl)phenyl]methyl]pyrrolidine-2-carboxamide]",IC50,[1],101 nM
same,IC50,"[2]; Homo sapiens, HeLa, 24 h",1410 nM
same,IC50,[3],> 100000 nM
"CC(C)c1ccc([C@@H](NC(=O)[C@@H]2C[C@@H](F)CN2C(=O)Cn2cc(N(C)C)nn2)c2ccccc2)cc1F [Compound 377, (2S,4R)-1-{2-[4-(dimethylamino)-1H-1,2,3-triazol-1-yl]acetyl}-4-fluoro-N-[(S)-[3-fluoro-4-(propan-2-yl)phenyl](phenyl)methyl] pyrrolidine-2-carboxamide]",IC50,[1],12 nM
same,IC50,"[2]; Homo sapiens, HeLa, 24 h",140 nM
same,IC50,[3],> 100000 nM
"C[C@H]1CC[C@@H](C(=O)N[C@@H](c2ccccc2)c2ccc(C3CC3)c(F)n2)N1C(=O)Cc1cnn[nH]1 [Compound 321, (2S,5S)-N-[(S)-(5-cyclopropyl-6-fluoropyridin-2-yl)(phenyl)methyl]-5-methyl-1-[2-(1H-1,2,3-triazol-5-yl)acetyl]pyrrolidine-2-carboxamide]",IC50,[1],124 nM
same,IC50,"[2]; Homo sapiens, HeLa, 24 h",1240 nM
same,IC50,[3],> 100000 nM
"CC(C)c1ccc([C@@H](NC(=O)[C@@H]2C[C@@H](F)CN2C(=O)C(O)c2cnn[nH]2)c2ccccc2)cc1F (single isomer, unassigned) [Compound 774, (2S,4R)-4-fluoro-N-[(S)-[3-fluoro-4-(propan-2-yl)phenyl](phenyl)methyl]-1-[(2S) or (2R)-2-hydroxy-2-(1H-1,2,3-triazol-5-yl)acetyl]pyrrolidine-2-carboxamide]",IC50,[1],22 nM
same,IC50,[2],190 nM
same,IC50,[3],> 100000 nM
"CC(C)c1ccc([C@@H](NC(=O)[C@@H]2C[C@@H](F)CN2C(=O)Cn2cc(C(F)(F)F)nn2)c2ccccc2)cc1F [Compound 372, (2S,4R)-4-fluoro-N-[(S)-[3-fluoro-4-(propan-2-yl)phenyl](phenyl)methyl]-1-{2-[4-(trifluoromethyl)-1H-1,2,3-triazol-1-yl]acetyl}pyrrolidine-2-carboxamide]",IC50,[1],36 nM
same,IC50,"[2]; Homo sapiens, HeLa, 24 h",1100 nM
same,IC50,[3],> 100000 nM
"Cc1nc2ccccc2n1CC(=O)N1C[C@H](F)C[C@H]1C(=O)N[C@@H](c1ccccc1)c1ccc(C2CC2)c(F)c1 [Compound 464, (2S,4R)-N-[(S)-(4-cyclopropyl-3-fluorophenyl)(phenyl)methyl]-4-fluoro-1-[2-(2-methyl-1H-1,3-benzodiazol-1-yl)acetyl]pyrrolidine-2-carboxamide]",IC50,[1],23 nM
same,IC50,"[2]; Homo sapiens, HeLa, 24 h",650 nM
same,IC50,[3],> 100000 nM
"Cc1coc(CC(=O)N2C[C@H](F)C[C@H]2C(=O)N[C@@H](c2ccccc2)c2ccc(C3CC(F)(F)C3)c(F)n2)n1 [Compound 511, (2S,4R)-N-[(S)-[5-(3,3-difluorocyclobutyl)-6-fluoropyridin-2-yl](phenyl)methyl]-4-fluoro-1-[2-(4-methyl-1,3-oxazol-2-yl)acetyl]pyrrolidine-2-carboxamide]",IC50,[1],12 nM
same,IC50,"[2]; Homo sapiens, HeLa, 24 h",260 nM
same,IC50,[3],> 100000 nM
"Cn1c(CC(=O)N2C[C@H](F)C[C@H]2C(=O)N[C@@H](c2ccccc2)c2ccc(C3CC3)c(F)n2)n[nH]c1=O [Compound 304, (2S,4R)-N-[(S)-(5-cyclopropyl-6-fluoropyridin-2-yl)(phenyl)methyl]-4-fluoro-1-[2-(4-methyl-5-oxo-4,5-dihydro-1H-1,2,4-triazol-3-yl)acetyl]pyrrolidine-2-carboxamide]",IC50,[1],73 nM
same,IC50,"[2]; Homo sapiens, HeLa, 24 h",2330 nM
same,IC50,[3],> 100000 nM
"Cc1cc(CC(=O)N2C[C@H](F)C[C@H]2C(=O)N[C@@H](c2ccccc2)c2ccc(C3CC3)c(F)n2)c[nH]c1=O [Compound 732, (2S,4R)-N-[(S)-(5-cyclopropyl-6-fluoropyridin-2-yl)(phenyl)methyl]-4-fluoro-1-[2-(5-methyl-6-oxo-1,6-dihydropyridin-3-yl)acetyl]pyrrolidine-2-carboxamide]",IC50,[1],27 nM
same,IC50,"[2]; Homo sapiens, HeLa, 24 h",1370 nM
same,IC50,[3],> 100000 nM
"CC(C)c1ccc([C@@H](NC(=O)[C@@H]2C[C@@H](F)CN2C(=O)Cn2cnnc2)c2ccccc2)cc1 [Compound 202, (2S,4R)-4-fluoro-N-[(S)-phenyl[4-(propan-2-yl)phenyl]methyl]-1-[2-(4H-1,2,4-triazol-4-yl)acetyl]pyrrolidine-2-carboxamide]",IC50,[1],71 nM
same,IC50,"[2]; Homo sapiens, HeLa, 24 h",1860 nM
same,IC50,[3],> 100000 nM
"CC(C)c1ccc([C@@H](NC(=O)[C@@H]2C[C@@H](F)CN2C(=O)Cc2ncco2)c2ccccc2)nc1F [Compound 407, (2S,4R)-4-fluoro-N-[(S)-[6-fluoro-5-(propan-2-yl)pyridin-2-yl](phenyl)methyl]-1-[2-(1,3-oxazol-2-yl)acetyl]pyrrolidine-2-carboxamide]",IC50,[1],15 nM
same,IC50,"[2]; Homo sapiens, HeLa, 24 h",420 nM
same,IC50,[3],> 100000 nM
"Cn1c(CC(=O)N2C[C@H](F)C[C@H]2C(=O)N[C@@H](c2ccccc2)c2ccc(C3CC3)c(F)c2)cc2ccccc21 [Compound 462, (2S,4R)-N-[(S)-(4-cyclopropyl-3-fluorophenyl)(phenyl)methyl]-4-fluoro-1-[2-(1-methyl-1H-indol-2-yl)acetyl]pyrrolidine-2-carboxamide]",IC50,[1],24 nM
same,IC50,"[2]; Homo sapiens, HeLa, 24 h",640 nM
same,IC50,[3],> 100000 nM
"CC(C(=O)N1C[C@H](F)C[C@H]1C(=O)N[C@@H](c1ccccc1)c1ccc(C2(C)CC2)c(F)n1)n1cnc2ccccc21 (single isomer, unassigned) [Compound 587, (2S,4R)-1-((R) or (S)-2-(1H-benzo[d]imidazol-1-yl)propanoyl)-4-fluoro-N—((S)-(6-fluoro-5-(1-methylcyclopropyl)pyridin-2-yl)(phenyl)methyl)pyrrolidine-2-carboxamide]",IC50,[1],109 nM
same,IC50,[2],2390 nM
same,IC50,[3],> 100000 nM
"CC1(c2ccc([C@@H](NC(=O)[C@@H]3C[C@@H](F)CN3C(=O)CN3CCN(C(=O)OCC(F)(F)F)CC3=O)c3ccccc3)cc2F)CC1 [Compound 578, 2,2,2-trifluoroethyl 4-{2-[(2S,4R)-4-fluoro-2-{[(S)-[3-fluoro-4-(1-methylcyclopropyl)phenyl](phenyl)methyl]carbamoyl}pyrrolidin-1-yl]-2-oxoethyl}-3-oxopiperazine-1-carboxylate]",IC50,[1],613 nM
same,IC50,"[2]; Homo sapiens, HeLa, 24 h",6660 nM
same,IC50,[3],79300 nM

# Reference: patent publication US11814367B2, “Inhibitors of glycogen synthase 1 (GYS1) and methods of use thereof” (Maze Therapeutics, Inc., priority 2021, dated 2023)
